Tests used:
Format in all cases: binding
[1] = target: TEAD2 TAZ (amino acids 13-57) (Homo sapiens, UniProt Q15562); experiment: TEAD2-TAZ HTRF (TR-FRET) protein-protein interaction assay; details: for TEAD2 TAZ HTRF combined: Max % Inhibition: TEAD2, TAZ peptide; for EC50: TEAD2-TAZ HTRF, TR-FRET 665 nm/615 nm, read-out: TEAD2 TAZ HTRF combined: EC50
Summary of the method: (§1)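 TEAD YBD (aa 217-447, His-tag) + Eu anti-His; cpd 30 min; + biotin-YAP 50-100 or biotin-TAZ 13-57 / SA-XL665; 60 min RT; TR-FRET 665/615; 4-parameter IC50/EC50.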

[2] = target: TEAD3 TAZ (amino acids 13-57) (Homo sapiens, UniProt Q99594); experiment: TEAD3-TAZ HTRF (TR-FRET) protein-protein interaction assay; details: for TEAD3 TAZ HTRF combined: Max % Inhibition: TEAD3, TAZ peptide; for EC50: TEAD3-TAZ HTRF, TR-FRET 665 nm/615 nm, read-out: TEAD3 TAZ HTRF combined: EC50
Summary of the method: as §1

[3] = target: TEAD4 TAZ (amino acids 13-57) (Homo sapiens, UniProt Q15561); experiment: TEAD4-TAZ HTRF (TR-FRET) protein-protein interaction assay; details: for TEAD4 TAZ HTRF combined: Max % Inhibition: TEAD4, TAZ peptide; for EC50: TEAD4-TAZ HTRF, TR-FRET 665 nm/615 nm, read-out: TEAD4 TAZ HTRF combined: EC50
Summary of the method: as §1

[4] = target: TEAD4 YAP50-100 (Homo sapiens, UniProt Q15561); experiment: TEAD4-YAP HTRF (TR-FRET) protein-protein interaction assay; details: TEAD4, YAP peptide 50-100, HTRF; for EC50: read-out: TEAD4 YAP50-100 HTRF combined: EC50
Summary of the method: as §1

[5] = target: TEAD3 YAP50-100 (Homo sapiens, UniProt Q99594); experiment: TEAD3-YAP HTRF (TR-FRET) protein-protein interaction assay; details: TEAD3, YAP peptide 50-100, HTRF; for EC50: read-out: TEAD3 YAP50-100 HTRF combined: EC50
Summary of the method: as §1

[6] = target: TEAD1 YAP50-100 (Homo sapiens, UniProt P28347); experiment: TEAD1-YAP HTRF (TR-FRET) protein-protein interaction assay; details: TEAD1, YAP peptide 50-100, HTRF; for EC50: read-out: TEAD1 YAP50-100 HTRF combined: EC50
Summary of the method: as §1

[7] = target: TEAD2 YAP50-100 (Homo sapiens, UniProt Q15562); experiment: TEAD2-YAP HTRF (TR-FRET) protein-protein interaction assay; details: TEAD2, YAP peptide 50-100, HTRF; for EC50: read-out: TEAD2 YAP50-100 HTRF combined: EC50
Summary of the method: as §1

[8] = target: TEAD1 TAZ (amino acids 13-57) (Homo sapiens, UniProt P28347); experiment: TEAD1-TAZ HTRF (TR-FRET) protein-protein interaction assay; details: for TEAD1 TAZ HTRF combined: Max % Inhibition: TEAD1, TAZ peptide; for EC50: TEAD1-TAZ HTRF, TR-FRET 665 nm/615 nm, read-out: TEAD1 TAZ HTRF combined: EC50
Summary of the method: as §1

TEAD1 YAP50-100, sequence (P28347 167-426 limits assumed): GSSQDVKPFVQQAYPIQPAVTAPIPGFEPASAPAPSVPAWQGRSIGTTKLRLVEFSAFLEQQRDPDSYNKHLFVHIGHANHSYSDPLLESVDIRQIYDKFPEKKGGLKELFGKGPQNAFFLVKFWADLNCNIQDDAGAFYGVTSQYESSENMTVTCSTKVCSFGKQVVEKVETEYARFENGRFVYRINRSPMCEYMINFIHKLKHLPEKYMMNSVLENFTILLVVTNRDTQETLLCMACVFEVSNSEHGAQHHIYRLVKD
TEAD1 TAZ (amino acids 13-57), sequence (P28347 167-426 limits assumed): as above
TEAD3 YAP50-100, sequence (Q99594 173-435 limits assumed): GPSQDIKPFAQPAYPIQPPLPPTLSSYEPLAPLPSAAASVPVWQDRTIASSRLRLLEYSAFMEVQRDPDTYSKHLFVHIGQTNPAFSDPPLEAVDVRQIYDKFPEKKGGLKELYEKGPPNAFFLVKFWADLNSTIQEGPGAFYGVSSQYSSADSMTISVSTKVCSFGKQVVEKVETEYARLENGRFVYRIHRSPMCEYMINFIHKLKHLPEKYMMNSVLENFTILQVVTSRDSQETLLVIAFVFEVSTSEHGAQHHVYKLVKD
TEAD3 TAZ (amino acids 13-57), sequence (Q99594 173-435 limits assumed): as above
TEAD4 TAZ (amino acids 13-57), sequence (Q15561 217-434 limits assumed): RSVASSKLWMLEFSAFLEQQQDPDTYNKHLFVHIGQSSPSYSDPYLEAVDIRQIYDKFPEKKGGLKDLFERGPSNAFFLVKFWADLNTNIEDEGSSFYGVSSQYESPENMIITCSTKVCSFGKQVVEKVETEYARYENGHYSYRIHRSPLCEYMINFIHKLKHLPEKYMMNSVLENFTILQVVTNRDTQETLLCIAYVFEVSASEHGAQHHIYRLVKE
TEAD4 YAP50-100, sequence (Q15561 217-434 limits assumed): as above
TEAD2 TAZ (amino acids 13-57), sequence (Q15562 217-447): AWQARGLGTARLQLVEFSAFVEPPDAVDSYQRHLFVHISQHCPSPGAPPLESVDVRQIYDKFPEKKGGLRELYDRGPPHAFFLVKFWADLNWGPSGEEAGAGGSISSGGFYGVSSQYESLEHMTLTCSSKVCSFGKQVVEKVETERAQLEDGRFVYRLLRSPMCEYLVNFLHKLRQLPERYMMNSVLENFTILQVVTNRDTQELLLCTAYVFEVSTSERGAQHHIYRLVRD
TEAD2 YAP50-100, sequence (Q15562 217-447): as above

C[C@H]1[C@@H](CF)CN1C(=O)c1c(-c2cnccn2)nn2c(=O)cc(-c3ccc(CC4CCCC4)cc3)[nH]c12 (single isomer, unassigned) [Isomer A, Example 44, Cis-5-(4-(cyclopentylmethyl)phenyl)-3-(3-(fluoromethyl)-2-methylazetidine-1-carbonyl)-2-(pyrazin-2-yl)pyrazolo[1,5-a]pyrimidin-7(4H)-one]
TEAD2 TAZ HTRF combined: Max % Inhibition [1]: 56.5% | EC50 [1]: 40 nM | TEAD3 TAZ HTRF combined: Max % Inhibition [2]: 64.0% | EC50 [2]: 1200 nM | TEAD4 TAZ HTRF combined: Max % Inhibition [3]: 42.0% | EC50 [3]: 9500 nM | TEAD4 YAP50-100 HTRF combined: Max % Inhibition [4]: 40.0% | EC50 [4]: 9350 nM | TEAD3 YAP50-100 HTRF combined: Max % Inhibition [5]: 65.5% | EC50 [5]: 1050 nM | TEAD1 YAP50-100 HTRF combined: Max % Inhibition [6]: 64.0% | EC50 [6]: 60 nM | TEAD2 YAP50-100 HTRF combined: Max % Inhibition [7]: 52.0% | EC50 [7]: 40 nM | TEAD1 TAZ HTRF combined: Max % Inhibition [8]: 52.0% | EC50 [8]: 70 nM

CCN(C)C(=O)c1nn2c(=O)cc(-c3ccc(C4CCCCC4)cc3)[nH]c2c1C(=O)N1CC(CF)C1 [Compound 35, 5-(4-Cyclohexylphenyl)-N-ethyl-3-(3-(fluoromethyl)azetidine-1-carbonyl)-N-methyl-7-oxo-4,7-dihydropyrazolo[1,5-a]pynmidine-2-carboxamide]
TEAD2 TAZ HTRF combined: Max % Inhibition [1]: 71.5% | EC50 [1]: 20 nM | TEAD3 TAZ HTRF combined: Max % Inhibition [2]: 57.0% | EC50 [2]: 150 nM | TEAD4 TAZ HTRF combined: Max % Inhibition [3]: 37.0% | EC50 [3]: 140 nM | TEAD4 YAP50-100 HTRF combined: Max % Inhibition [4]: 52.5% | EC50 [4]: 180 nM | TEAD3 YAP50-100 HTRF combined: Max % Inhibition [5]: 68.0% | EC50 [5]: 130 nM | TEAD1 YAP50-100 HTRF combined: Max % Inhibition [6]: 72.0% | EC50 [6]: 70 nM | TEAD2 YAP50-100 HTRF combined: Max % Inhibition [7]: 71.5% | EC50 [7]: 20 nM | TEAD1 TAZ HTRF combined: Max % Inhibition [8]: 59.0% | EC50 [8]: 80 nM

Cc1ccnc(-c2nn3c(=O)cc(-c4ccc(C5CCCCC5)cc4)[nH]c3c2C(=O)N2CC(CF)C2)n1 [Compound 9, 5-(4-Cyclohexylphenyl)-3-(3-(fluoromethyl)azetidine-1-carbonyl)-2-(4-methylpyrimidin-2-yl)pyrazolo[1,5-a]pyrimidin-7(4H)-one]
TEAD2 TAZ HTRF combined: Max % Inhibition [1]: 63.0% | EC50 [1]: 10 nM | TEAD3 TAZ HTRF combined: Max % Inhibition [2]: 52.5% | EC50 [2]: 90 nM | TEAD4 TAZ HTRF combined: Max % Inhibition [3]: 56.0% | EC50 [3]: 30 nM | TEAD4 YAP50-100 HTRF combined: Max % Inhibition [4]: 52.0% | EC50 [4]: 30 nM | TEAD3 YAP50-100 HTRF combined: Max % Inhibition [5]: 62.0% | EC50 [5]: 80 nM | TEAD1 YAP50-100 HTRF combined: Max % Inhibition [6]: 71.0% | EC50 [6]: 30 nM | TEAD2 YAP50-100 HTRF combined: Max % Inhibition [7]: 62.0% | EC50 [7]: 10 nM | TEAD1 TAZ HTRF combined: Max % Inhibition [8]: 69.5% | EC50 [8]: 40 nM

O=C(c1c(-c2ncccn2)nn2c(=O)cc(-c3ccc(CC4CCCC4)cc3)[nH]c12)N1CC(CF)C1 [Compound 24, 5-(4-(Cyclopentylmethyl)phenyl)-3-(3-(fluoromethyl)azetidine-1-carbonyl)-2-(pyrimidin-2-yl) pyrazolo[1,5-a]pyrimidin-7(4H)-one]
TEAD2 TAZ HTRF combined: Max % Inhibition [1]: 66.5% | TEAD3 TAZ HTRF combined: Max % Inhibition [2]: 43.0% | EC50 [2]: 30 nM | TEAD4 TAZ HTRF combined: Max % Inhibition [3]: 54.0% | EC50 [3]: 10 nM | TEAD4 YAP50-100 HTRF combined: Max % Inhibition [4]: 51.0% | EC50 [4]: 10 nM | TEAD3 YAP50-100 HTRF combined: Max % Inhibition [5]: 52.0% | EC50 [5]: 20 nM | TEAD1 YAP50-100 HTRF combined: Max % Inhibition [6]: 63.0% | EC50 [6]: 20 nM | TEAD2 YAP50-100 HTRF combined: Max % Inhibition [7]: 66.0% | TEAD1 TAZ HTRF combined: Max % Inhibition [8]: 57.0% | EC50 [8]: 20 nM

CCCCCCCCCc1cc(=O)n2nc(-c3nccnc3C)c(C(=O)N3C[C@H](CF)[C@@H]3C)c2[nH]1 [Compound 71, 3-((2S,3S)-3-(fluoromethyl)-2-methylazetidine-1-carbonyl)-2-(3-methylpyrazin-2-yl)-5-nonylpyrazolo[1,5-a]pyrimidin-7(4H)-one]
TEAD2 TAZ HTRF combined: Max % Inhibition [1]: 64.0% | EC50 [1]: 10 nM | TEAD3 TAZ HTRF combined: Max % Inhibition [2]: 49.0% | EC50 [2]: 50 nM | TEAD4 TAZ HTRF combined: Max % Inhibition [3]: 56.5% | EC50 [3]: 3000 nM | TEAD4 YAP50-100 HTRF combined: Max % Inhibition [4]: 48.5% | EC50 [4]: 3450 nM | TEAD3 YAP50-100 HTRF combined: Max % Inhibition [5]: 61.0% | EC50 [5]: 60 nM | TEAD1 YAP50-100 HTRF combined: Max % Inhibition [6]: 53.0% | EC50 [6]: 50 nM | TEAD2 YAP50-100 HTRF combined: Max % Inhibition [7]: 64.0% | EC50 [7]: 10 nM | TEAD1 TAZ HTRF combined: Max % Inhibition [8]: 52.5% | EC50 [8]: 50 nM

Cc1c(-c2nn3c(=O)cc(-c4ccc(C5CCCCC5)cc4)[nH]c3c2C(=O)N2CC(CF)C2)ncn1C [Compound 30, 5-(4-Cyclohexylphenyl)-2-(1,5-dimethyl-1H-imidazol-4-yl)-3-(3-(fluoromethyl)azetidine-1-carbonyl)pyrazolo[1,5-a]pyrimidin-7(4H)-one]
TEAD2 TAZ HTRF combined: Max % Inhibition [1]: 61.5% | EC50 [1]: 10 nM | TEAD3 TAZ HTRF combined: Max % Inhibition [2]: 51.5% | EC50 [2]: 80 nM | TEAD4 TAZ HTRF combined: Max % Inhibition [3]: 31.5% | EC50 [3]: 120 nM | TEAD4 YAP50-100 HTRF combined: Max % Inhibition [4]: 45.0% | EC50 [4]: 180 nM | TEAD3 YAP50-100 HTRF combined: Max % Inhibition [5]: 65.0% | EC50 [5]: 90 nM | TEAD1 YAP50-100 HTRF combined: Max % Inhibition [6]: 71.0% | EC50 [6]: 70 nM | TEAD2 YAP50-100 HTRF combined: Max % Inhibition [7]: 61.5% | EC50 [7]: 10 nM | TEAD1 TAZ HTRF combined: Max % Inhibition [8]: 64.5% | EC50 [8]: 60 nM

CCCCCCC/C=C/c1cc(=O)n2nc(-c3nccnc3C)c(C(=O)N3C[C@H](CF)[C@@H]3C)c2[nH]1 [Compound 70, 3-((2S,3S)-3-(fluoromethyl)-2-methylazetidine-1-carbonyl)-2-(3-methylpyrazin-2-yl)-5-((E)-non-1-en-1-yl)pyrazolo[1,5-a]pyrimidin-7(4H)-one]
TEAD2 TAZ HTRF combined: Max % Inhibition [1]: 66.0% | EC50 [1]: 10 nM | TEAD3 TAZ HTRF combined: Max % Inhibition [2]: 52.5% | EC50 [2]: 30 nM | TEAD4 TAZ HTRF combined: Max % Inhibition [3]: 63.5% | EC50 [3]: 970 nM | TEAD4 YAP50-100 HTRF combined: Max % Inhibition [4]: 58.0% | EC50 [4]: 1300 nM | TEAD3 YAP50-100 HTRF combined: Max % Inhibition [5]: 64.0% | EC50 [5]: 40 nM | TEAD1 YAP50-100 HTRF combined: Max % Inhibition [6]: 58.0% | EC50 [6]: 10 nM | TEAD2 YAP50-100 HTRF combined: Max % Inhibition [7]: 67.0% | TEAD1 TAZ HTRF combined: Max % Inhibition [8]: 54.5% | EC50 [8]: 20 nM

From US12692269B2, “Therapeutic compounds” (Genentech, Inc., priority 2019, dated 2026)
